Holding throughout (assay type): cell-based, bovine
Series [1] deals with mammary epithelial cells (MECs). As to the kind of experiment: Intracellular triglycerides (TGs) in MECs, plate assay. Here is the method:
1. Oleic acid treatment: Oleic acid was added to the induction medium at […] final concentration. Treatment was carried for 1 up to 7 days. 2. […] LXRa was added into the media with or without Oleic acid. Two LXR agonists were tested: GW3965 (LXR1, SIGMA) and T0901317 (LXR2, SIGMA), each at a concentration of luM/ml for at least overnight (ON) incubation. The OA was added after cells reached the confluency of at least 80%. After treatment, cells were harvested with trypsin (0.05%), washed with 0.9% (w/v) NaCl and stored at −20° C. until lipid extraction. Total lipids were extracted from the intact cells by NP-40 and from media by cold-extraction procedure developed by Folch et al. with few adaptations. Briefly, a 5-ml aliquot of methanol: chloroform solution (2:1, v/v) was added to each sample. After incubation at room temperature, 1 ml of double-distilled water was added. After overnight incubation at 4° C., the upper phase was discarded, and the lower phase was filtered through a Pasteur pipette with glass wool. Samples were then dried under a nitrogen stream at 65° C., diluted in 100 μl 0.5% NP-40. Of note, lipid metabolites are measured by Cobas measurement, which is a parameter for lipid activity but measures also glycerol, the plate assay on the other hand measures TGs specifically while eliminating the glycerol background. After treatment, medium was collected and centrifuged at 500 g for 10 min. The supernatant was transferred to a fresh tube and kept at 4° C. until analysis. Medium triglyceride content was quantified with a Triglyceride Quantification Kit (lipase assay Abcam, Cambridge, UK). Quantification was performed against external standard curves and expressed as μg/10∧6 live cells. Live cell number was determined with a hemocytometer after Trypan blue staining.

The test system is the same in series [2]. Briefly: Lipids / lipid metabolites released to the culture medium of MECs. Particulars: 1 μM/ml LXRa with OA. The protocol:
Total lipids were extracted from the intact cells by NP-40 and from media by cold-extraction procedure developed by Folch et al. with few adaptations. Briefly, a 5-ml aliquot of methanol: chloroform solution (2:1, v/v) was added to each sample. After incubation at room temperature, 1 ml of double-distilled water was added. After overnight incubation at 4° C., the upper phase was discarded, and the lower phase was filtered through a Pasteur pipette with glass wool. Samples were then dried under a nitrogen stream at 65° C., diluted in 100 μl 0.5% NP-40. Of note, lipid metabolites are measured by Cobas measurement, which is a parameter for lipid activity but measures also glycerol, the plate assay on the other hand measures TGs specifically while eliminating the glycerol background. After treatment, medium was collected and centrifuged at 500 g for 10 min. The supernatant was transferred to a fresh tube and kept at 4° C. until analysis. Medium triglyceride content was quantified with a Triglyceride Quantification Kit (lipase assay Abcam, Cambridge, UK). Quantification was performed against external standard curves and expressed as μg/10∧6 live cells. Live cell number was determined with a hemocytometer after Trypan blue staining.

Series [3] shares this test system. As to the kind of experiment: Cell viability and morphology of MECs under oleic acid with or without LXRa. The protocol:
1. Oleic acid treatment: Oleic acid was added to the induction medium at […] final concentration. Treatment was carried for 1 up to 7 days.
2. […] LXRa was added into the media with or without Oleic acid. Two LXR agonists were tested: GW3965 (LXR1, SIGMA) and T0901317 (LXR2, SIGMA), each at a concentration of luM/ml for at least overnight (ON) incubation. The OA was added after cells reached the confluency of at least 80%.
The analysis was done for the presence of 360 μM OA or 1100 μM OA with or without LXRa (TO901317).

Series [4] has as its system LXR downstream genes: SREBP1, FASN, SLC25A1 and SQLE. As to the kind of experiment: RT-PCR expression of LXR downstream lipid metabolism genes in MECs after overnight LXR agonist incubation. Particulars: OA incubation of MECs. Here is the method:
A primary culture of MEC was isolated from mammary biopsies. Briefly, udder tissue was collected from lactating cows in a commercial slaughterhouse and immediately submerged in ice-cold growth medium, DMEM-F12, with 1000 U/ml penicillin, 1 mg/ml streptomycin, 2.5 μg/ml amphotericin B mixture, and 0.02 mg/ml heparin supplementation to prevent cell clotting after digestion. Study protocols followed the regulations of the Israeli Ministry of Health. Cells were grown in plastic culture dishes with DMEM/F12 supplemented with 10% (w/v) FBS, 100 U/ml penicillin, 100 μg/ml streptomycin, 0.25 μg/ml amphotericin B supplemented with insulin (1 μg/ml), hydrocortisone (0.5 μg/ml) and prolactin (1 μg/ml). 2. […] LXRa was added into the media with or without Oleic acid. Two LXR agonists were tested: GW3965 (LXR1, SIGMA) and T0901317 (LXR2, SIGMA), each at a concentration of luM/ml for at least overnight (ON) incubation. The OA was added after cells reached the confluency of at least 80%. Cells were harvested using the […] reagent and pellet was collected by centrifugation of 3 min in 300 rcf. RNA was extracted from 1×10^6 cells using NzytechTM total RNA isolation kit (MB13402). cDNA was prepared using SensiFastTM cDNA kit (0.5μgr RNA/20 μl reaction mix). RT-PCR was done with the following primers by using SensiFastTM RT-PCR kit with 1.25-20 ng cDNA/well. [table] […]

In the case of `O=S(=O)(c1ccccc1)N(CC(F)(F)F)c1ccc(C(O)(C(F)(F)F)C(F)(F)F)cc1` [LXRa, T0901317], the “Higher intracellular TGs levels vs OA only” value in series [1] (360 μM OA treatment, LXRa 1 μl/ml) is 60%. In addition, in series [1] (FIG. 3), the “Delta triglycerides (TGs) levels inside cells with vs without LXRa” value is listed as “similar”. Besides, in series [1] (OA concentrations higher than 360 μM), the “Effect of LXR agonist on intracellular TGs” value is “not observed”. The “Lipids release to the medium” value in series [2] is given as “release lipids to the medium”. For the same compound, the “Effect of LXRa on oleic acid toxicity (cells viability and morphology)” value in series [3] (LXRa 1 μM/ml TO901317, 360 μM or 1100 μM OA) is “ameliorates the negative effect”.
Regarding `CCCCCCCC/C=C\CCCCCCCC(=O)O` [Oleic acid, oleic acid], in series [3] (oleic acid above 300 μM or longer than one day), the “Effect on cells viability” value is on record as “negative effect”. In addition, in series [4], the “Effect on LXR dependent gene expression of lipid metabolism” value is reported as “no effect”.

Values taken from patent US20250305010A1, “LIPID COMPOSITIONS AND METHODS OF PRODUCING SAME” (Wilk Technologies International Ltd., priority 2022, published 2025).
